Usually IC50 stands for the concentration that gives 50% inhibition. By EC50 is commonly meant the midpoint of the concentration-response curve. Lower therefore signals greater potency.

The structures appear in SMILES notation. In brackets after ≈: the same amount, converted by molar mass.

Assay [1] in a line: Inhibition of recombinant protein farnesyltransferase-mediated [3H]FPP transfer after 30 mins by scintillation counting.
A short description of assay [2]: Cytotoxicity against human BC1 cells. The format is functional, cell-based.
In a further assay the test system is HT. Nature of the assay: Cytotoxicity against human HT cells. The assay is classed as functional, cell-based.
The subject of another assay is Lu1. Nature of the assay: Cytotoxicity against human Lu1 cells. The format is functional, cell-based.
The subject of a further assay is SK-MEL-2. The experiment in a line: Cytotoxicity against human SK-MEL-2 cells. The format is functional, cell-based.
The test system of a further assay is KB. Nature of the assay: Cytotoxicity against human KB cells. The assay is classed as functional, cell-based.
The nature of assay [3]: Cytotoxicity against human KBVIN cells. The format is functional, cell-based.
The next assay relates to A-431. The experiment in a line: Cytotoxicity against human A431 cells. The format is functional, cell-based.
Another assay has as its system LNCaP. Nature of the assay: Cytotoxicity against human LNCAP cells. The format is functional, cell-based.
Another assay has as its system ZR-75-1. Nature of the assay: Cytotoxicity against human ZR-75-1 cells. The format is functional, cell-based.
Assay [4] in a line: Cytotoxicity against human U373 cells. The format is functional, cell-based, U-373MG ATCC. As to conditions: U373 MG.
A further assay has as its system Col2. Nature of the assay: Cytotoxicity against human Col2 cells. The assay is classed as functional, cell-based.

As to `C=C(C)[C@@H]1CC[C@]2(CO)CC[C@]3(C)[C@H](CC[C@@H]4[C@@]5(C)CC[C@H](O)C(C)(C)[C@@H]5CC[C@]43C)[C@@H]12` [BETULIN], the IC50 in [1] worked out at 1 µg/mL.
For the compound `C=C1C(=O)O[C@@H]2C[C@]3(C)CC[C@]4(C)[C@H](CC[C@@H]5[C@@]6(C)CC[C@H](O)C(C)(C)[C@@H]6CC[C@]54C)[C@H]3[C@H]12` [DIHYDRO OCHRACEOLIDE A], the IC50 in [1] was greater than 100 µg/mL. In addition, the EC50 in assay [2] is 10.2 µg/mL (≈ 22.4 µM); in the assay with HT, 9.6 µg/mL (≈ 21.1 µM); in the assay with Lu1 it was 8.9 µg/mL (≈ 19.6 µM); with SK-MEL-2 it was greater than 20 µg/mL; in the assay with KB, greater than 20 µg/mL; in assay [3], greater than 20 µg/mL. Moreover, the 50% effective concentration (EC50) was found to be 6.8 µg/mL (≈ 15 µM) in the assay with A-431; 14.5 µg/mL (≈ 31.9 µM) in the assay with LNCaP; 3 µg/mL (≈ 6.6 µM) in the assay with ZR-75-1; 9.1 µg/mL (≈ 20 µM) in [4]; 12.1 µg/mL (≈ 26.6 µM) in the assay on Col2.
Turning to `CC1(C)C(=O)CC[C@]2(C)[C@H]3CC[C@@H]4[C@H]5[C@H]6[C@@H](C[C@]5(C)CC[C@@]4(C)[C@]3(C)CC[C@@H]12)OC(=O)[C@]61CO1` [20-EPI-OCHRACEOLIDE B], the IC50 in [1] is greater than 100 µg/mL.
As for `C=C1C(=O)O[C@@H]2C[C@]3(C)CC[C@]4(C)[C@H](CC[C@@H]5[C@@]6(C)CCC(=O)C(C)(C)[C@@H]6CC[C@]54C)[C@H]3[C@H]12` [OCHRACEOLIDE A], the IC50 in [1] is greater than 100 µg/mL. Further, the EC50 in assay [2] was 7.9 µg/mL (≈ 17.5 µM); with HT, 8.6 µg/mL (≈ 19 µM); in the assay with Lu1, 16.1 µg/mL (≈ 35.6 µM); with SK-MEL-2, greater than 20 µg/mL; in the assay with KB it was greater than 20 µg/mL; in assay [3] it was 17.2 µg/mL (≈ 38 µM). Besides, the half-maximal effective concentration (EC50) with A-431 was greater than 20 µg/mL; with LNCaP it was 13.4 µg/mL (≈ 29.6 µM); with ZR-75-1 it was 4.5 µg/mL (≈ 9.94 µM); in assay [4] it was 6.7 µg/mL (≈ 14.8 µM); in the assay with Col2 it was greater than 20 µg/mL.
Take `C=C(C)[C@@H]1CC[C@]2(C)CC[C@]3(C)[C@H](CC[C@@H]4[C@@]5(C)CC[C@H](O)C(C)(C)[C@@H]5CC[C@]43C)[C@@H]12` [LUPEOL]: the concentration for half-maximal inhibition (IC50) in assay [1] worked out at 65 µg/mL.

Values taken from ChEMBL document CHEMBL1158271, “Lupane derivatives from Lophopetalum wallichii with farnesyl protein transferase inhibitory activity” (J Nat Prod, 1996).
